Measured values published in patent US20240034729A9, “HETEROCYCLIC COMPOUND, INTERMEDIATE, PREPARATION METHOD THEREFOR AND APPLICATION THEREOF” (WUHAN LL SCIENCE AND TECHNOLOGY DEVELOPMENT CO., LTD., priority 2018, published 2024).

System: Male Dunkin Hartley guinea pigs
Assay: ATP-citric acid cough model
Format: in vivo, guinea pig
Experimental: Male Dunkin Hartley guinea pigs (300-400 g) were placed into a whole-body plethysmography box to adapt for 3-5 min, then ATP atomization is carried out for 2 min, and 3 min later, 5 min of citric acid atomization was followed, with all atomization rates being about 300 uL/min. The number of coughs and the cough latency of the animals within 10 min from the start of the citric acid atomization were recorded. During the 10-min observation, coughs of the animals were counted manually, and the coughs were judged according to cough postures of the guinea pigs, such as abdominal twitching, mouth opening, head inclining downward abruptly and the like. The number of coughs during 10 min were recorded, and the cough latency of the guinea pigs was also recorded.
The animals were divided into a vehicle group, a dextromethorphan (63 mg/kg) positive group, an AF-219 (30 mg/kg) positive group and Example 173 compound (3, 10, 30 mg/kg) administration groups, and all the compounds were orally administered. Except that dextromethorphan was administered 40 min before ATP-citric acid exposure, the remaining compounds were administered 2 h before ATP-citric acid exposure.

[1] = 63 mg/kg oral, 40 min before ATP-citric acid exposure

SMILES: COc1ccc2c(c1)[C@]13CCCC[C@@H]1[C@H](C2)N(C)CC3 [Dextromethorphan, dextromethorphan, reference compound]
- Cough inhibition ratio vs. vehicle (%) [1]: 61.60%
- Number of coughs during 10 min [1]: 8.00
- Number of coughs / cough inhibition (in words) (compared with the vehicle group): can significantly reduce the number of coughs
